Results from patent publication US11193110B2, “Methods to generate gastrointestinal epithelial tissue constructs” (The University of North Carolina at Chapel Hill, priority 2015, dated 2021).
Entries after “also recorded” stand apart in the source; their conditions may differ.

Assays:
[1] = system: primary intestinal epithelial cells; assay: screen of dietary compounds and natural products on primary intestinal epithelial cells on collagen hydrogel (Hoechst 33342, EDU, alkaline phosphatase, Muc2); type: cell-based; conditions: 48 h incubation at Table 1 concentration; for S-phase or proliferating cells (EDU) / number of nuclei / cell number (Hoechst 33342): relative to control cells cultured in ENR-W; for growth suppression: both number of nuclei and S-phase cells significantly lower than control: p<0.01 versus control cells in ENR-W; for enterocyte phenotype (alkaline phosphatase expression): p=0.01 (#42), p=0.02 (#31), p=0.002 (#51)
Excerpt: FIG. 11. The impact of dietary compounds and natural products on primary colonic epithelium. The percentage of the collagen Daiszein (aglycone of daidzen) surface area occupied by cells (Hoechst 33342-positive) and the normalized EDU (A), alkaline phosphatase and mucin2-positive areas (B) were plotted against the compound number. The EDU, alkaline phosphatase and Muc2 areas were normalized to the total cell area. Alphabetic headings refer to categories described in Table 1.
Strategies to screen the vast number of dietary and metabolite compounds for their impact on proliferation, differentiation and other cell behaviors in the intestine have become increasingly important. However, major challenges exist due to a lack of technologies capable of faithfully duplicating the actions of these compounds on normal, healthy colonic cells. […] These attributes are central to intestinal barrier function and repair in the face of repeated chemical, physical, immune and infectious insults. Additionally controlled proliferation and terminal differentiation are key to avoiding an oncogenic state. Metabolites or natural products minimizing intestinal-cell proliferation without cell death, enhancing cell proliferation, or directing cells into the differentiated lineages are of profound interest for health maintenance and as therapeutics. The compounds represented a range of chemical classes with diverse or unknown impact on primary intestinal cells including fatty acids, bile acids, flavenoids, phytoestrogens, phenols, terpenoids, nitrates, and others. 75,000 cells were cultured on the collagen hydrogel with ENR-W (but with 10 ng/mL Wnt-3A) for 24 h to enable cells to attach to the surface, followed by incubation with the dietary/natural compounds for 48 h. The cells were then analyzed sequentially for four attributes: nuclei (Hoechst 33342), S-phase or proliferating cells (EDU), enterocyte phenotype (high alkaline phosphatase), and goblet cell marker (Muc2) (FIGS. 11A-B). […] In particular, glucosinolates (#68, #69, #70), responsible for the bitterness of cabbage and brussel sprouts, are toxic when consumed at high concentrations and this may in part be due to their direct effects on intestinal cells. […] These included the most of the phenols assayed such as gallic acid (#28), ellagic acid (#29), and punicalagin (#31) but also compounds such as valproate (#6) and […]-carotene (#58) all of which are recognized in the literature as inducing cell differentiation. […] Molecules promoting enterocyte formation may exert some of their beneficial effects by enhancing intestinal barrier and/or absorptive function and thus may be worthy of additional investigation. […] Matairesinol increases COX-2-derived prostaglandin E2 in Caco-2 cells and prostaglandin E2 has been characterized as inducing Goblet cell formation in the colon to increase mucous secretion. Screening primary colon epithelium directly links the matairesinol to increased mucous production and this may be through a prostaglandin E pathway.

Caco-2 cells = conditions: cited from earlier work
CYP1A1 = assay: ethoxyresorufin O-deethylase (EROD) assay of CYP1A1 induction in the 2D colonic epithelial monolayer; type: cell-based, mouse; conditions: 0.1 μM TCDD
Method: FIG. 7. […] Top panel, day 0. Bottom panel, day 5. White dotted line indicates the perimeter of the insert. (B) SEM images of 2D monolayer. […] (C) Basal EROD activity and inducibility in 2D monolayer cells. 2D monolayer was cultured under ENR-WB for 5 days. […] CYP1A1 enzyme activity was determined using the ethoxyresorufin O-deethylase (EROD) assay, n=3.
Intestine is a vital organ that has many important functions (such as absorption, secretion, etc.). One function is metabolism through cytochrome P450 (CYP) enzyme activity that provides the principal, initial source of biotransformation/detoxification of ingested xenobiotics (Kaminsky, L. S. et al., Critical Reviews in Toxicology 21, 407-422 (1992)). Among the CYPs, CYP1A1 plays a physiological role in the degradation of estradiol into 2-OH-estradiol (Paine, M. F. et al., Drug Metabolism and Disposition 27, 360-364 (1999)). In vivo, CYP1A1 in rat intestines can be induced by feeding the rats with polycyclic aromatic hydrocarbons (PAHs) (Martignoni, M. et al., Chemico-Biological Interactions 151, 1-11 (2004)). […] The CYP1A1 enzyme activity was determined using an ethoxyresorufin O-deethylase (EROD) assay (Jones, S. P. et al., Ecotoxicology 23, 802-808 (2014)).

## COc1cc(-c2oc3cc(O)cc(O)c3c(=O)c2O)ccc1O [#21, Isorhamnetin]
[1]
  S-phase or proliferating cells (EDU): increased cell numbers in S-phase

## C[S+]([O-])CCCC/C(=N\OS(=O)(=O)O)S[C@@H]1O[C@H](CO)[C@@H](O)[C@H](O)[C@H]1O (some centres unmarked) [#70, Glucoraphanin]
[1]
  growth suppression: both number of nuclei and S-phase cells significantly lower than control: growth suppressive

## COc1cc(C[C@H]2COC(=O)[C@@H]2Cc2ccc(O)c(OC)c2)ccc1O [#77, Matairesinol]
Caco-2 cells
  COX-2-derived prostaglandin E2: increases
[1]; relative to control, p<0.01
  goblet cell marker Muc2 or mucin expression: significantly increased

## O=S(=O)(O)ON=C(CCc1ccccc1)S[C@@H]1O[C@H](CO)[C@@H](O)[C@H](O)[C@H]1O [#69, Gluconasturtiin]
[1]
  growth suppression: both number of nuclei and S-phase cells significantly lower than control: growth suppressive

## Clc1cc2c(cc1Cl)Oc1cc(Cl)c(Cl)cc1O2 [TCDD, 2,3,7,8-tetrachlorodibenzo-p-dioxin]
CYP1A1; 2D monolayer cultured under ENR-WB 5 days, treated 20 hours, EROD assay
  CYP1A1 activity increased compared with the cells treated with toluene vehicle: 40 fold
CYP1A1; 2D monolayer treated 20 hours, 10 μM βNF, 1 μM BaP, toluene vehicle
  CYP1A1 enzyme activity induction by PAHs: effectively demonstrated

## S=C=NCc1ccccc1 [#68, Glucotropaeolin isothiocyanate]
[1]
  growth suppression: both number of nuclei and S-phase cells significantly lower than control: growth suppressive

## CC1=C(/C=C/C(C)=C/C=C/C(C)=C/C=C/C=C(C)/C=C/C=C(C)/C=C/C2=C(C)CCCC2(C)C)C(C)(C)CCC1 [#58, β-carotene]
[1]
  S-phase or proliferating cells (EDU): suppressed proliferation
  number of nuclei / cell number (Hoechst 33342): did not greatly diminish cell number

## CN[C@@H]1C[C@H]2O[C@@](C)([C@@H]1OC)n1c3ccccc3c3c4c(c5c6ccccc6n2c5c31)C(=O)NC4 [#32, Aglycones (Staurosporine), reference compound]
[1]
  S-phase or proliferating cells (EDU): decreased
  number of nuclei / cell number (Hoechst 33342): significantly increased

## C/C(=C\CO)CCC[C@H](C)CCC[C@H](C)CCCC(C)C [#51, Phytol]
[1]
  number of nuclei / cell number (Hoechst 33342): without cell number reduction
[1]; relative to control
  enterocyte phenotype (alkaline phosphatase expression): directed cells towards the enterocyte lineage

## O=C1O[C@H]2[C@@H]3OC(=O)c4cc(O)c(O)c(O)c4-c4c(O)c(O)c5oc(=O)c6c(c(O)c(O)c7oc(=O)c4c5c76)-c4c(cc(O)c(O)c4O)C(=O)OC[C@H]3OC(O)[C@@H]2OC(=O)c2cc(O)c(O)c(O)c2-c2c1cc(O)c(O)c2O (mixture of isomers) [#31, Punicalagin]
[1]
  S-phase or proliferating cells (EDU): suppressed proliferation
  number of nuclei / cell number (Hoechst 33342): did not greatly diminish cell number; also recorded: without cell number reduction
[1]; relative to control
  enterocyte phenotype (alkaline phosphatase expression): directed cells towards the enterocyte lineage

## O=C(O)c1cc(O)c(O)c(O)c1 [#28, Gallic Acid]
[1]
  S-phase or proliferating cells (EDU): suppressed proliferation
  number of nuclei / cell number (Hoechst 33342): did not greatly diminish cell number

## CC12CCC(CC1)C(C)(C)O2 [#42, Eucalyptol]
[1]
  S-phase or proliferating cells (EDU): minimized cell proliferation
[1]; relative to control
  enterocyte phenotype (alkaline phosphatase expression): increasing alkaline phosphatase expression

## O=c1oc2c(O)c(O)cc3c(=O)oc4c(O)c(O)cc1c4c23 [#29, Ellagic Acid]
[1]
  S-phase or proliferating cells (EDU): suppressed proliferation
  number of nuclei / cell number (Hoechst 33342): did not greatly diminish cell number
